{"source": "patent US10435371B2", "about": "“Multifunctional aminoquinoline therapeutic agent” (LOHOCLA RESEARCH CORPORATION, priority 2014, dated 2019)", "key": {"cannabinoid CB1 receptor": {"biological_target": "T1, cannabinoid CB1 receptor (Homo sapiens, UniProt P21554)", "T1 construct": "expressed in transfected cells; host or cells: HeLa (ATCC), calcium phosphate transient transfection", "T1 sequence (P21554 whole entry)": "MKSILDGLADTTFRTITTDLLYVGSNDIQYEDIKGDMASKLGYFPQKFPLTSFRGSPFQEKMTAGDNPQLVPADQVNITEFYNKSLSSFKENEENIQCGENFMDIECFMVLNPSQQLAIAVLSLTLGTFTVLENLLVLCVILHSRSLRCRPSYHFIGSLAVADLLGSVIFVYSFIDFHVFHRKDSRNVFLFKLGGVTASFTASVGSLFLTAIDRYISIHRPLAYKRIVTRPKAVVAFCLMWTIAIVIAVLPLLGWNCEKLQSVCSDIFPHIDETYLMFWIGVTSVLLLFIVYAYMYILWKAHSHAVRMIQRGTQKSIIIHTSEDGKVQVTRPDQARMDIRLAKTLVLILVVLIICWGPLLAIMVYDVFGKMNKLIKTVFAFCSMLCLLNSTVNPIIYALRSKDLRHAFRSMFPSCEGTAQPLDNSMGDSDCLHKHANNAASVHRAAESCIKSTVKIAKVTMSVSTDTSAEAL", "assay": "cAMP accumulation, HeLa cells transfected with CB1 receptor, D1 receptor and AC7", "format": "cell-based", "settings": "for Effect on cAMP accumulation in the presence of dopamine: CB1 receptor, D1, AC7, DCUK-OEt 10 μM, ACEA 10 μM, FIG. 1"}, "[1]": {"biological_target": "GABA site, GABA-A Receptor", "assay": "PDSP radioligand displacement, [^3H]Muscimol", "parameters": "species or system rat", "settings": "read-out: Binding constant Ki, GABA site, GABA-A Receptor"}, "ethanol dependent rats": {"tested_on": "ethanol dependent rats", "assay": "Operant responding for alcohol in ethanol vapor-exposed dependent rats", "format": "in vivo, rat", "settings": "FIG. 18", "description": "This example illustrates that ethanol dependent rats are motivated to work for ethanol reward during a period of forced abstinence and that DCUK-OEt reduces responding for the alcohol reward.\nThe methods used in this study are extensively described in (Vendruscolo et al., 2012). The rats were first trained to self-administer ethanol in an operant chamber. The rats were given free-choice access to alcohol (10% w/v) and water for 1 day in their home cages to habituate them to the taste of alcohol. The rats were then subjected to an overnight session in the operant chambers with access to one lever that delivered water (FR1). Food was available ad libitum during this training. After 1 day off, the rats were subjected to a 2 hour session (FR1) for 1 day and a 1 hour session (FR1) the next day, with one lever delivering alcohol. All of the subsequent sessions lasted 30 minutes, and two levers were available (left lever: water; right lever: alcohol). Once trained, the rats were made dependent by chronic, intermittent exposure to alcohol vapors (Gilpin et al., 2008). They underwent cycles of 14 hours of ethanol exposure (blood alcohol levels during vapor exposure ranged between 150 and 250 mg %) and 10 hours in the absence of ethanol vapor, during which behavioral testing for acute withdrawal occurred (i.e., 6-8 hours after vapor was turned off, when brain and blood alcohol levels were negligible). Nondependent rats were those not exposed to alcohol vapor. Pharmacological testing occurred after at least 2 months of vapor exposure, when full dependence was observed. DCUKA-OEt was administered i.p. at the doses specified in FIG. 18, sixty minutes prior to placing the animal in the operant chamber. The vehicle for DCUK-OEt was injected in certain animals as a control."}, "[2]": {"biological_target": "T2, GABA-A receptors (α1, β2, γ2s subunits) (UniProt P18508+P47870+P62813)", "T2 construct": "expressed in transfected cells; host or cells: Xenopus laevis oocytes injected with capped cRNAs (α1:β2:γ2s 2:2:20 ng)", "T2 sequence (P62813 28-455)": "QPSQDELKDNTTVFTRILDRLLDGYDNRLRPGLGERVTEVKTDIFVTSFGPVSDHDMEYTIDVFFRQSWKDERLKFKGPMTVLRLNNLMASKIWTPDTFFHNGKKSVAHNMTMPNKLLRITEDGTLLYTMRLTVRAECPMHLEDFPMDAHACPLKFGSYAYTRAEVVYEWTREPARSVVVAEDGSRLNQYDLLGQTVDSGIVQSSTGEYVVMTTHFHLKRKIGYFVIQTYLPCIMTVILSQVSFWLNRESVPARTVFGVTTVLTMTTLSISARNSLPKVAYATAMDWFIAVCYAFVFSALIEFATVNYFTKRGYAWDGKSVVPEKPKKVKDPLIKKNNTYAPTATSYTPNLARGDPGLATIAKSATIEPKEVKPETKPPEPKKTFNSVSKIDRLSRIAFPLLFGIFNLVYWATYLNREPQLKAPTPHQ", "T2 sequence (P47870 26-474 isoform P47870-1 limits assumed)": "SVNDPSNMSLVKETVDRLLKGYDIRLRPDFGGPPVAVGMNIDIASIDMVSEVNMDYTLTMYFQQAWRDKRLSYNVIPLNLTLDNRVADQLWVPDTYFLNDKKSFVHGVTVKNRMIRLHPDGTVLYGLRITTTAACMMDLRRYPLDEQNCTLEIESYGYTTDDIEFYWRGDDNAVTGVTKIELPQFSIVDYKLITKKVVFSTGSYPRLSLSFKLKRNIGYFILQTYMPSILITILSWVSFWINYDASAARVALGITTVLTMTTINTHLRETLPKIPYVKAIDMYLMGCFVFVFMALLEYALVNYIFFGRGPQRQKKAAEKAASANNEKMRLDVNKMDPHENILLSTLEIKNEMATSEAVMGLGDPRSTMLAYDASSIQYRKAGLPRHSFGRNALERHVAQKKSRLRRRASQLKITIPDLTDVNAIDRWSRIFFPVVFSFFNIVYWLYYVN", "T2 sequence (P18508 39-466)": "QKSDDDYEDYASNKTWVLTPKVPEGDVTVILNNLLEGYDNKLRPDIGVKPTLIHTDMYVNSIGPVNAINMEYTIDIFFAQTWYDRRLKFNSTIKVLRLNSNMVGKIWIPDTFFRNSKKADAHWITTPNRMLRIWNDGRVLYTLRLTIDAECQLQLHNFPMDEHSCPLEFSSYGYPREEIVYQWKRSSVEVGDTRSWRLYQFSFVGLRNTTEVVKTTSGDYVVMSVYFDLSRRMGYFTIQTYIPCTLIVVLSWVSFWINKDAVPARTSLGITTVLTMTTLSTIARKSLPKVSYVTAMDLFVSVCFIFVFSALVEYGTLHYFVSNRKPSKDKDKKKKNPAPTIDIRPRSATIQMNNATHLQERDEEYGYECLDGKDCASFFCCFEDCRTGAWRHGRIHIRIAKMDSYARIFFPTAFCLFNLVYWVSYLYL", "assay": "Two-electrode voltage clamp, GABA-A receptors expressed in Xenopus oocytes", "format": "cell-based, rat α1 and γ2s, human β2", "settings": "for Efficacy among five DCUK derivatives: potentiation of GABA response, FIG. 4C", "experimental": "Xenopus laevis frogs were obtained from Nasco (Fort Atkinson, Wis., USA). The complementary DNAs encoding the GABAA subunits rat α1 and γ2s and human β2 were provided by Dr. M. H. Akabas and Dr. Paul Whiting, respectively. The in vitro transcription of α1, β2, and γ2s subunits was performed using mMessage mMachine® (Life Technologies, Grand Island, N.Y.). After isolation of Xenopus laevis oocytes, they were injected with capped complementary RNAs encoding α1, β2, and γ2s subunits in a ratio 2:2:20 ng. The injected oocytes were incubated at 15° C. in sterilized Barth's solution [MBS; composition: 88 mM NaCl, 1 mM KCl, 10 mM HEPES, 0.82 mM MgSO4, 2.4 mM NaHCO3, 0.91 mM CaCl2), and 0.33 mM Ca(NO3)2, pH 7.5] for 3-5 days before recording. All surgery was performed according to an approved institutional protocol. The responses of GABAARs expressed in oocytes were studied through two-electrode voltage clamp (Oocyte Clamp OC-725C, Warner Instruments, Hamden, Conn.), recording through a POWERLAB 4/30 system (ADInstruments, Colorado Springs, Colo.). The oocyte was placed in a chamber perfused with MBS, and voltage-clamped at −70 mV."}, "[3]": {"tested_on": "rats treated with Complete Freund's Adjuvant", "assay": "Combination with morphine, CFA-induced thermal hyperalgesia (radiant heat paw withdrawal test)", "format": "in vivo, rat", "settings": "thermal hyperalgesia after CFA", "quoted_text": "Thermal Hypersensitivity Test (Radiant Heat Paw Withdrawal Test). Rats were placed in clear plastic chambers on a glass surface and were habituated for 15 minutes before testing. Thermal sensitivity was measured by using paw withdrawal latency to a radiant heat stimulus. A radiant heat source (i.e., infrared) was activated with a timer and focused onto the plantar surface of the left hind paw. A motion detector that halted both lamp and timer when the paw was withdrawn determined paw withdrawal latency. The latencies were measured before and after drug or vehicle administration. A maximum cutoff of 33 seconds was used to prevent tissue damage."}, "[4]": {"tested_on": "alcohol-dependent male Wistar rats", "assay": "Alcohol deprivation model of relapse drinking in alcohol-dependent rats", "format": "in vivo, rat", "settings": "for Relapse drinking (alcohol intake after deprivation): FIG. 17", "experimental": "This model is thoroughly described in a paper by (Spanagel and Holter, 1999). The model consists of a conditioning phase where individually housed male Wistar rats are allowed ad libitum access to food and 0, 5, 10 and 20% alcohol solutions in a four-bottle choice paradigm. The rats are weighed every 3rd and 4th day and food and fluid consumption is measured. The positions of bottles are changed once a week and after two months of continuous alcohol access, rats are deprived of alcohol for two weeks. After the deprivation phase, all alcohol solutions are presented again for 5 weeks and the procedure is repeated for ˜1 year. At this point an alcohol deprivation phase is instituted. Pre-deprivation (baseline) drinking is recorded for 3-4 days and then all alcohol is taken from the animals and they are only given water to drink for two weeks. Following alcohol deprivation, alcohol intake (total grams of ethanol/kg body weight) and water intake (ml/kg body weight) are measured daily. The alcohol preference ratio is calculated as (ethanol consumption [g/kg])/(water consumption [ml/kg]).\nFor this experiment, animals were divided into groups of 6-8 rats such that the mean baseline total alcohol intake was approximately the same (˜2.8 g/kg/day) across all groups. Baseline drinking was monitored followed by 14 days of alcohol deprivation. Each animal then received i.p. injections of DCUK-OEt twice daily at 12 hour intervals starting at 7 PM prior to the reintroduction of ethanol for a total of 3 (20 mg/kg) or 5 injections (75 mg/kg). Acamprosate, an already marketed agent for reducing relapse, was used as a positive control and four doses of 50 mg/kg or 200 mg/kg were injected over a two-day period. Alcohol bottles were re-introduced after the first (acamprosate) or second (DCUK-OEt) injection."}, "[5]": {"tested_on": "rats treated with cisplatin", "assay": "Reversal of cisplatin-induced neuropathic pain (von Frey mechanical pain threshold)", "format": "in vivo, rat", "settings": "cisplatin i.p. 7 mg/kg total, day 14; 30 mg/kg oral (equimolar to DCUKA and BCUKA); 1 and 2 hours; FIG. 6"}, "delta opiate receptor [6]": {"biological_target": "T3, delta opiate receptor (Homo sapiens, UniProt P41143)", "T3 sequence (P41143 whole entry)": "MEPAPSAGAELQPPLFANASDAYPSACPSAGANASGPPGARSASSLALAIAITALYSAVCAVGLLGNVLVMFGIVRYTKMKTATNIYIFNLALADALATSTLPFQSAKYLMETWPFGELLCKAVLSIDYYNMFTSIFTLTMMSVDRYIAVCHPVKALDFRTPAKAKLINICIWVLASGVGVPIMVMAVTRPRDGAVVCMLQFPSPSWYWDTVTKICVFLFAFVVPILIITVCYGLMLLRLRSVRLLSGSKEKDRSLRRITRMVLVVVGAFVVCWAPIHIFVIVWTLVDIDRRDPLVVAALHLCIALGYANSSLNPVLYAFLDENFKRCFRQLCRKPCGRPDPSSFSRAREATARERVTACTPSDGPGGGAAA", "assay": "cAMP accumulation, HeLa cells transfected with D1 receptor, DOR and AC5", "format": "cell-based", "parameters": "expressed in transfected cells", "settings": "not shown"}, "delta opiate receptor [7]": {"biological_target": "T3, delta opiate receptor", "assay": "cAMP accumulation, HEK293 cells transfected with DA receptor, delta opiate receptor and AC7", "format": "cell-based", "parameters": "expressed in transfected cells; host or cells: HEK293 (ATCC), calcium phosphate transient transfection", "settings": "naltrindole 10 μM"}, "[8]": {"tested_on": "rats treated with Complete Freund's Adjuvant", "assay": "Naltrindole reversal of the effect of DCUKA on CFA-induced neuropathic pain", "format": "in vivo, rat", "experimental": "Rats were tested for baseline mechanical pain threshold (von Frey test) and given an intraplantar injection of Complete Freunds Adjuvant (CFA) in the left hind paw."}, "[9]": {"tested_on": "rats treated with streptozotocin", "assay": "Combination with aspirin, STZ-induced neuropathic pain (von Frey)", "format": "in vivo, rat", "settings": "aspirin 25 mg/kg, 60 min before test; FIG. 16", "experimental": "After administration of streptozotocin (STZ) as described in Example 5, rats were tested for allodynia using a von Frey apparatus. Sixty minutes prior to testing, rats were divided into four groups. Group 1 received vehicle; group 2 received DCUKA; group 3 received aspirin; and group 4 received a combination of DCUKA and aspirin."}, "[10]": {"tested_on": "rats treated with Complete Freund's Adjuvant", "assay": "Combination with morphine, CFA-induced pain, mechanical pain threshold", "format": "in vivo, rat", "settings": "FIG. 15 Panel A"}}, "data": [{"compound": "CCCCC/C=C\\C/C=C\\C/C=C\\C/C=C\\CCCC(=O)NCCCl", "note": "[ACEA, reference compound]", "values": [{"measurement": "Effect on cAMP accumulation in the presence of dopamine", "setting": "cannabinoid CB1 receptor", "result": "increased the accumulation of cAMP"}]}, {"compound": "CCOC(=O)c1cc(NC(=O)N(c2ccccc2)c2ccccc2)c2c(Cl)cc(Cl)cc2n1", "note": "[DCUK-OEt]", "values": [{"measurement": "Ki", "setting": "[1]", "result": "1700 ± 300", "unit": "nM"}, {"measurement": "Alcohol self-administration", "setting": "ethanol dependent rats; 20 mg/kg i.p., 60 min before session, ethanol vapor-exposed rats", "result": "brought the ethanol vapor exposed rats down to the same level of self-administration as non-ethanol pretreated control rats"}, {"measurement": "Lever pressing for ethanol", "setting": "ethanol dependent rats; 35 and 50 mg/kg i.p., alcohol-dependent rats", "result": "reduced lever pressing for ethanol to even lower levels"}, {"measurement": "Lever pressing for water", "setting": "ethanol dependent rats; all doses tested, alcohol dependent rats", "result": "No effect"}, {"measurement": "Character of action at the GABA-A receptor", "setting": "[2]; FIG. 4A", "result": "positive allosteric modulators (PAM)"}, {"measurement": "GABA-induced chloride currents", "setting": "[2]; co-applied with EC10 GABA, FIG. 4A", "result": "significantly enhanced GABA-induced currents"}, {"measurement": "Efficacy among five DCUK derivatives", "setting": "[2]", "result": "most efficacious"}, {"measurement": "Chloride currents, compound alone", "setting": "[2]; without GABA, FIG. 4A", "result": "no effect on chloride currents by themselves"}, {"measurement": "Character of action at the CB1 cannabinoid receptor", "setting": "cannabinoid CB1 receptor; AC7, alone and together with ACEA", "result": "weak partial agonist"}, {"measurement": "Effect on cAMP accumulation in the presence of dopamine", "setting": "cannabinoid CB1 receptor", "result": "significant increase in cAMP accumulation"}, {"measurement": "Antihyperalgesic response", "setting": "[3]; 6.4 mg of DCUK-OEt combined with 0.2 mg/kg morphine", "result": 40, "unit": "%"}, {"measurement": "Relapse drinking (alcohol intake after deprivation)", "setting": "[4]; 20 mg/kg i.p. twice daily, 3 injections", "result": "transient, but significant, reduction in relapse drinking"}, {"measurement": "Water consumption", "setting": "[4]; 75 mg/kg DCUK-OEt, data not shown", "result": "increased consumption of water"}, {"measurement": "Relapse drinking (alcohol intake after deprivation)", "setting": "[4]; 75 mg/kg i.p. twice daily, 5 injections", "result": "almost complete abolition of alcohol intake"}]}, {"compound": "CCCC(=O)c1cc(NC(=O)N(c2ccccc2)c2ccccc2)c2c(Cl)cc(Cl)cc2n1", "note": "[DCUK-butanone, 3-(2-Butyryl-5,7-dichloroquinolin-4-yl)-1,1-diphenylurea]", "values": [{"measurement": "Efficacy among five DCUK derivatives", "setting": "[2]", "result": "most efficacious"}]}, {"compound": "NCC1(CC(=O)O)CCCCC1", "note": "[Gabapentin, gabapentin, reference compound]", "values": [{"measurement": "Mechanical pain threshold, ratio to baseline", "setting": "[5]", "result": "did not significantly reverse"}]}, {"compound": "Oc1ccc2c3c1O[C@H]1c4[nH]c5ccccc5c4C[C@@]4(O)[C@@H](C2)N(CC2CC2)CC[C@]314", "note": "[Naltrindole, reference compound]", "values": [{"measurement": "Effect of DOR antagonist on the DCUKA inhibition of cAMP accumulation", "setting": "delta opiate receptor [6]", "result": "reversed"}, {"measurement": "Effect of DOR antagonist on the BCUKA-induced cAMP increase", "setting": "delta opiate receptor [7]", "result": "reversed"}, {"measurement": "Effect of intraplantar naltrindole on the DCUKA effect", "setting": "[8]; Naltrindole 10 μg per paw s.c. 45 min after DCUKA 50 mg/kg oral, tested 15 min later", "result": "reversed the anti-allodynic effect of DCUKA"}, {"measurement": "Effect of naltrindole alone on pain threshold", "setting": "[8]; Naltrindole 10 μg per paw with vehicle", "result": "no effect on its own"}]}, {"compound": "CC(=O)NCCCS(=O)(=O)O", "note": "[acamprosate, reference compound]", "values": [{"measurement": "Relapse drinking (alcohol intake after deprivation)", "setting": "[4]; acamprosate 50 mg/kg, four doses over two days, positive control", "result": "transient, but significant, reduction in relapse drinking"}]}, {"compound": "CC(=O)Oc1ccccc1C(=O)O", "note": "[aspirin, reference compound]", "values": [{"measurement": "Effect on allodynia, alone", "setting": "[9]", "result": "do not have any significant effect on allodynia"}]}, {"compound": "CN1CC[C@]23c4c5ccc(O)c4O[C@H]2[C@@H](O)C=C[C@H]3[C@H]1C5", "note": "[morphine, reference compound]", "values": [{"measurement": "Analgesia, each agent alone at the dose used for the combination", "setting": "[10]", "result": "ineffective in producing analgesia"}, {"measurement": "Antihyperalgesic response", "setting": "[3]; morphine alone 0.2 mg/kg", "result": "~20", "unit": "%"}]}]}
